The text below walks through data of US20230257372A1 (CHONG KUN DANG PHARMACEUTICAL CORP., priority 2020, published 2023).

For one assay, the target named is T1, human recombinant HDAC6 (Homo sapiens, UniProt Q9UBN7).
T1 construct: purchased Calbiochem Inc. 382180
T1 sequence (Q9UBN7 1-1215): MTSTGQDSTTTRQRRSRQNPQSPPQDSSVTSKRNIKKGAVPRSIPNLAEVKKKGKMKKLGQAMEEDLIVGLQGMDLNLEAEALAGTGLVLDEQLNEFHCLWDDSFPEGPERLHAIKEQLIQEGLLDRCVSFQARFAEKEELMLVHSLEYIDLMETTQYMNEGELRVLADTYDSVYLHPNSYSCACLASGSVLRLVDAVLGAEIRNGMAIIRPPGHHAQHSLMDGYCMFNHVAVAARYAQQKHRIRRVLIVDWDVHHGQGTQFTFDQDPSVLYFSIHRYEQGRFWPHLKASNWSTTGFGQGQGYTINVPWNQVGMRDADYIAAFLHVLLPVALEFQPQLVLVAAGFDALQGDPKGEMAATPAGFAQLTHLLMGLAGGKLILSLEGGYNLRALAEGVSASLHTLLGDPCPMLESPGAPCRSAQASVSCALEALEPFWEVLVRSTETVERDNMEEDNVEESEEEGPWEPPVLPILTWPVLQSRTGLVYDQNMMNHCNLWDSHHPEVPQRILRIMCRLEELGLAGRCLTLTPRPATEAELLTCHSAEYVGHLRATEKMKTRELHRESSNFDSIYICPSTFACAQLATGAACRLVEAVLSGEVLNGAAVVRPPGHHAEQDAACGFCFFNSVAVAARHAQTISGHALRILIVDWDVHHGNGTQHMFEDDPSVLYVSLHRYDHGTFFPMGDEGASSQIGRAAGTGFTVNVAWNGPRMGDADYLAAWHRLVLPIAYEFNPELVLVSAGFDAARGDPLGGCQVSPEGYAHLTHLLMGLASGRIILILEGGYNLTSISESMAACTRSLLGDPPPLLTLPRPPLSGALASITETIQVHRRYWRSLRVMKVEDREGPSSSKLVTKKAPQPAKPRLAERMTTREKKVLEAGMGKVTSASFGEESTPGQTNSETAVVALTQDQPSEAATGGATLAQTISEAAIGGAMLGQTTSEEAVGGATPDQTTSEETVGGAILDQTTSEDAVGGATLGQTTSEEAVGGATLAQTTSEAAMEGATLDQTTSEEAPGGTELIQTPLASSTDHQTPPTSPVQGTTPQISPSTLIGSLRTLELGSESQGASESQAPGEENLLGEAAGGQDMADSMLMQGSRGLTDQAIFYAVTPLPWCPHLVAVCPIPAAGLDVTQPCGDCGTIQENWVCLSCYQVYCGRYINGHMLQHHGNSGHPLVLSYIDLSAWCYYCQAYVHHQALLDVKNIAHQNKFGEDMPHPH
Put plainly: HDAC6 enzyme activity inhibition (HDAC Fluorimetric Drug Discovery Kit). It counts as biochemical. The method, boiled down: (§1)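 Each isoform is run in the same format: compound dilutions (5-fold steps), 10 μM substrate, […] enzyme, one hour at 30° C, then 30 minutes with developer before fluorescence readout.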

A further assay addresses T2, human recombinant HDAC1 (Homo sapiens, UniProt Q13547).
T2 construct: purchased Enzo Life Science, Inc. BML-SE456
Put plainly: HDAC1 enzyme activity inhibition (HDAC Fluorimetric Drug Discovery Kit). It is filed as biochemical. Conditions: read-out: HDAC1. The gist of the method: as §1

[1] abbreviates: human recombinant HDAC6, same protocol as HDAC1.
Setting [2] is: human recombinant HDAC1, Fluor de Lys substrate, 30° C. 60 minutes.
Setting [3] is: human recombinant HDAC6, IC50 calculated with GraphPad Prism.
The mark [4] stands for this setting: human recombinant HDAC1, IC50 calculated with GraphPad Prism.

Like-named read-outs stand apart in the source and are kept apart here.

T2 sequence (Q13547 whole entry): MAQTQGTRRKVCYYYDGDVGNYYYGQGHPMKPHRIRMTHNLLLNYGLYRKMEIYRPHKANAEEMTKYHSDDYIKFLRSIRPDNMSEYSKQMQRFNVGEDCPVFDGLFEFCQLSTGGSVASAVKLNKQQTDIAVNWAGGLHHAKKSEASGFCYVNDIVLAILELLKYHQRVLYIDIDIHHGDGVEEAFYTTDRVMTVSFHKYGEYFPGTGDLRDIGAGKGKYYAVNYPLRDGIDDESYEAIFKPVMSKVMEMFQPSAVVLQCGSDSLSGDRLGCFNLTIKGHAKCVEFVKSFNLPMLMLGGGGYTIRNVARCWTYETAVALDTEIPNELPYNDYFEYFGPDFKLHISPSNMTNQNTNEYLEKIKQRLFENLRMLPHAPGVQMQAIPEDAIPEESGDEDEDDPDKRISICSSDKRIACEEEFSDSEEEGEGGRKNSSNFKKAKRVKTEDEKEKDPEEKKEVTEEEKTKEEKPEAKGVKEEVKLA

For `FC(F)c1nnc(-c2ccc(Cn3cc(-c4cccc(C5CN(C6COC6)C5)c4)nn3)nc2)o1` [Compound 4505, 2-(difluoromethyl)-5-(6-((4-(3-(1-(oxetan-3-yl)azetidin-3-yl)phenyl)-1H-1,2,3-triazol-1-yl)methyl)pyridin-3-yl)-1,3,4-oxadiazole], on human recombinant HDAC6 (HDAC6 over HDAC1), the “HDAC6 selectivity (fold)” value worked out at 2032 fold. The IC50 on human recombinant HDAC6 (setting [1]) is 24.6 nM; on human recombinant HDAC1 (setting [2]) it was > 50000 nM.
As to `FC(F)c1nnc(-c2ccc(Cn3cc(-c4ccc(CN5CCC5)cc4)nn3)nc2)o1` [Compound 4558, 2-(6-((4-(4-(azetidin-1-ylmethyl)phenyl)-1H-1,2,3-triazol-1-yl)methyl)pyridin-3-yl)-5-(difluoromethyl)-1,3,4-oxadiazole], the “HDAC6 selectivity (fold)” value at human recombinant HDAC6 (HDAC6 over HDAC1) came out at 5882 fold. In addition, the results for the IC50 at human recombinant HDAC6 (setting [1]) and at human recombinant HDAC1 (setting [2]) were 8.5 nM and > 50000 nM, respectively.
In the case of `CCC(=O)N1CCN(c2cccc(-c3cn(Cc4ccc(-c5nnc(C(F)F)o5)cc4F)nn3)c2)CC1` [Compound 4377, 1-(4-(3-(1-(4-(5-(difluoromethyl)-1,3,4-oxadiazol-2-yl)-2-fluorobenzyl)-1H-1,2,3-triazol-4-yl)phenyl)piperazin-1l-yl)propan-1l-one], the “HDAC6 selectivity (fold)” value on human recombinant HDAC6 (HDAC1 IC50 / HDAC6 IC50) is reported as 1039 fold. Further, the IC50 on human recombinant HDAC6 (setting [3]) was 48.1 nM; at human recombinant HDAC1 (setting [4]) it was > 50000 nM.
`Fc1cc(-c2nnc(C(F)F)o2)cnc1Cn1cc(-c2cccc(CN3CCCC3)c2Cl)nn1` [Compound 19089]: the “HDAC6 selectivity (fold)” value at human recombinant HDAC6 (HDAC6 over HDAC1) was 665 fold. Besides, the figures for the IC50 at human recombinant HDAC6 (setting [1]) and on human recombinant HDAC1 (setting [2]) were 75.1 nM and > 50000 nM, respectively.
Taken in the same sequence, the figures for `CN(C)Cc1cccc(-c2cn(Cc3ncc(-c4nnc(C(F)F)o4)cc3F)nn2)c1` [Compound 18457, 1-(3-(1-((5-(5-(difluoromethyl)-1,3,4-oxadiazol-2-yl)-3-fluoropyridin-2-yl)methyl)-1H-1,2,3-triazol-4-yl)phenyl)-N,N-dimethylmethanamine] were 554 fold, 90.1 nM and > 50000 nM.
For the compound `CC1CCN(Cc2ccc(-c3cn(Cc4ccc(-c5nnc(C(F)F)o5)cc4F)nn3)cn2)CC1` [Compound 18177, 2-(difluoromethyl)-5-(3-fluoro-4-((4-(6-((4-methylpiperidin-1-yl)methyl)pyridin-3-yl)-1H-1,2,3-triazol-1-yl)methyl)phenyl)-1,3,4-oxadiazole], the “HDAC6 selectivity (fold)” value on human recombinant HDAC6 (HDAC6 over HDAC1) was 784 fold. Besides, the IC50 on human recombinant HDAC6 (setting [1]) was 63.7 nM; on human recombinant HDAC1 (setting [2]) it was > 50000 nM.
In the case of `CN1CCc2ccc(-c3cn(Cc4ncc(-c5nnc(C(F)F)o5)cc4F)nn3)cc2C1` [Compound 19002, 2-(difluoromethyl)-5-(5-fluoro-6-((4-(2-methyl-1,2,3,4-tetrahydroisoquinolin-7-yl)-1H-1,2,3-triazol-1-yl)methyl)pyridin-3-yl)-1,3,4-oxadiazole], the “HDAC6 selectivity (fold)” value on human recombinant HDAC6 (HDAC6 over HDAC1) amounted to 587 fold. The IC50 is 85.1 nM on human recombinant HDAC6 (setting [1]) and > 50000 nM at human recombinant HDAC1 (setting [2]).
In the case of `O=C(c1cccc(-c2cn(Cc3ccc(-c4nnc(C(F)F)o4)cn3)nn2)c1)N1CCCC1` [Compound 3829, (3-(1-((5-(5-(difluoromethyl)-1,3,4-oxadiazol-2-yl)pyridin-2-yl)methyl)-1H-1,2,3-triazol-4-yl)phenyl)(pyrrolidin-1-yl)methanone], the “HDAC6 selectivity (fold)” value at human recombinant HDAC6 (HDAC1 IC50 / HDAC6 IC50) turned out to be 1655 fold. In addition, the IC50 on human recombinant HDAC6 (setting [3]) is 30.2 nM; on human recombinant HDAC1 (setting [4]) it was > 50000 nM.
The corresponding values for `CCN1CCN(Cc2cccc(-c3cn(Cc4ccc(-c5nnc(C(F)F)o5)cc4)nn3)c2)CC1` [Compound 4415, 2-(difluoromethyl)-5-(4-((4-(3-((4-ethylpiperazin-1-yl)methyl)phenyl)-1H-1,2,3-triazol-1-yl)methyl)phenyl)-1,3,4-oxadiazole] are 545 fold, 91.7 nM and > 50000 nM.
Consider `CN(C)Cc1c(-c2ccccc2)nnn1Cc1ccc(-c2nnc(C(F)F)o2)cn1` [Compound 4490, 1-(1-((5-(5-(difluoromethyl)-1,3,4-oxadiazol-2-yl)pyridin-2-yl)methyl)-4-phenyl-1H-1,2,3-triazol-5-yl)-N,N-dimethylmethanamine], for which the “HDAC6 selectivity (fold)” value on human recombinant HDAC6 (HDAC1 IC50 / HDAC6 IC50) is listed as 571 fold. The IC50 at human recombinant HDAC6 (setting [3]) is 87.5 nM; on human recombinant HDAC1 (setting [4]), > 50000 nM.
As for `Fc1cc(-c2nnc(C(F)F)o2)cnc1Cn1cc(-c2ccc(CN3CCCC3)cc2Cl)nn1` [Compound 19100, 2-(6-((4-(2-chloro-4-(pyrrolidin-1-ylmethyl)phenyl)-1H-1,2,3-triazol-1-yl)methyl)-5-fluoropyridin-3-yl)-5-(difluoromethyl)-1,3,4-oxadiazole], the “HDAC6 selectivity (fold)” value on human recombinant HDAC6 (HDAC6 over HDAC1) is recorded as 868 fold. In addition, the IC50 was 57.6 nM on human recombinant HDAC6 (setting [1]) and > 50000 nM on human recombinant HDAC1 (setting [2]).
With `OCc1c(-c2ccccc2)nnn1Cc1ccc(-c2nnc(C(F)F)o2)cc1F` [Compound 4479, (1-(4-(5-(difluoromethyl)-1,3,4-oxadiazol-2-yl)-2-fluorobenzyl)-4-phenyl-1H-1,2,3-triazol-5-yl)methanol], the “HDAC6 selectivity (fold)” value on human recombinant HDAC6 (HDAC1 IC50 / HDAC6 IC50) is 103 fold. In addition, the values for the IC50 on human recombinant HDAC6 (setting [3]) and on human recombinant HDAC1 (setting [4]) were 483 nM and > 50000 nM, respectively.
In the case of `FC(F)c1nnc(-c2ccc(Cn3cc(-c4ccnc(N5CCN(C6CC6)CC5)c4)nn3)nc2)o1` [Compound 4593, 2-(6-((4-(2-(4-cyclopropylpiperazin-1-yl)pyridin-4-yl)-1H-1,2,3-triazol-1-yl)methyl)pyridin-3-yl)-5-(difluoromethyl)-1,3,4-oxadiazole], on human recombinant HDAC6 (HDAC6 over HDAC1), the “HDAC6 selectivity (fold)” value is recorded as 2127 fold. Besides, the IC50 is 23.5 nM on human recombinant HDAC6 (setting [1]) and > 50000 nM on human recombinant HDAC1 (setting [2]).
The corresponding values for `CC1CCN(Cc2ccc(-c3cn(Cc4ccc(-c5nnc(C(F)F)o5)cc4F)nn3)s2)CC1` [Compound 17915] are 568 fold, 87.9 nM and > 50000 nM.
Taken in the same sequence, the figures for `Fc1cc(-c2nnc(C(F)F)o2)ccc1Cn1cc(-c2ccc3c(c2)CN(C2CCOCC2)C3)nn1` [Compound 17458, 2-(difluoromethyl)-5-(3-fluoro-4-((4-(2-(tetrahydro-2H-pyran-4-yl)isoindolin-5-yl)-1H-1,2,3-triazol-1-yl)methyl)phenyl)-1,3,4-oxadiazole] were 619 fold, 80.7 nM and > 50000 nM.
As to `CN(C)Cc1cccc(-c2cn(Cc3ccc(-c4nnc(C(F)F)o4)cn3)nn2)c1` [Compound 3915, 1-(3-(1-((5-(5-(difluoromethyl)-1,3,4-oxadiazol-2-yl)pyridin-2-yl)methyl)-1H-1,2,3-triazol-4-yl)phenyl)-N,N-dimethylmethanamine], the “HDAC6 selectivity (fold)” value on human recombinant HDAC6 (HDAC1 IC50 / HDAC6 IC50) was found to be 1308 fold. For the same compound, the IC50 at human recombinant HDAC6 (setting [3]) was 38.2 nM; on human recombinant HDAC1 (setting [4]), > 50000 nM.
The corresponding values for `CC(C)(C)OC(=O)Nc1cccc(-c2cn(Cc3ccc(-c4nnc(C(F)F)o4)cn3)nn2)c1` [Compound 3741, Tert-butyl (3-(1-((5-(5-(difluoromethyl)-1,3,4-oxadiazol-2-yl)pyridin-2-yl)methyl)-1H-1,2,3-triazol-4-yl)phenyl)carbamate] are 1754 fold, 28.5 nM and > 50000 nM.
Taken in the same sequence, the figures for `Fc1cc(-c2nnc(C(F)F)o2)ccc1Cn1cc(-c2ccc(CN3CCC3)cc2)nn1` [Compound 4466, 2-(4-((4-(4-(azetidin-1-ylmethyl)phenyl)-1H-1,2,3-triazol-1-yl)methyl)-3-fluorophenyl)-5-(difluoromethyl)-1,3,4-oxadiazole] were 6944 fold, 7.2 nM and > 50000 nM.
